Experimental data reported in patent publication US20240217990A1 (Gilead Sciences, Inc., priority 2021, published 2024).

How the values were obtained:
TLR7 = molecular target: T1, TLR7 (Homo sapiens, UniProt Q9NYK1); test: TLR7 human PBMC cell-based assay (antagonist, GS-986 stimulated cytokine release); conditions: human PBMCs; TLR7 agonist GS-986 400 nM, 6 hours; cytokines (IL-6 and IFNα) in supernatant; read-out: TLR-7 EC50
T1 construct: Human peripheral blood mononuclear cells (PBMCs) consist of lymphocytes, monocytes and dendritic cells that express TLR7, TLR8 and TLR9; endogenous in cells; host or cells: cryopreserved human PBMCs from healthy donors
T1 sequence (Q9NYK1 27-1049): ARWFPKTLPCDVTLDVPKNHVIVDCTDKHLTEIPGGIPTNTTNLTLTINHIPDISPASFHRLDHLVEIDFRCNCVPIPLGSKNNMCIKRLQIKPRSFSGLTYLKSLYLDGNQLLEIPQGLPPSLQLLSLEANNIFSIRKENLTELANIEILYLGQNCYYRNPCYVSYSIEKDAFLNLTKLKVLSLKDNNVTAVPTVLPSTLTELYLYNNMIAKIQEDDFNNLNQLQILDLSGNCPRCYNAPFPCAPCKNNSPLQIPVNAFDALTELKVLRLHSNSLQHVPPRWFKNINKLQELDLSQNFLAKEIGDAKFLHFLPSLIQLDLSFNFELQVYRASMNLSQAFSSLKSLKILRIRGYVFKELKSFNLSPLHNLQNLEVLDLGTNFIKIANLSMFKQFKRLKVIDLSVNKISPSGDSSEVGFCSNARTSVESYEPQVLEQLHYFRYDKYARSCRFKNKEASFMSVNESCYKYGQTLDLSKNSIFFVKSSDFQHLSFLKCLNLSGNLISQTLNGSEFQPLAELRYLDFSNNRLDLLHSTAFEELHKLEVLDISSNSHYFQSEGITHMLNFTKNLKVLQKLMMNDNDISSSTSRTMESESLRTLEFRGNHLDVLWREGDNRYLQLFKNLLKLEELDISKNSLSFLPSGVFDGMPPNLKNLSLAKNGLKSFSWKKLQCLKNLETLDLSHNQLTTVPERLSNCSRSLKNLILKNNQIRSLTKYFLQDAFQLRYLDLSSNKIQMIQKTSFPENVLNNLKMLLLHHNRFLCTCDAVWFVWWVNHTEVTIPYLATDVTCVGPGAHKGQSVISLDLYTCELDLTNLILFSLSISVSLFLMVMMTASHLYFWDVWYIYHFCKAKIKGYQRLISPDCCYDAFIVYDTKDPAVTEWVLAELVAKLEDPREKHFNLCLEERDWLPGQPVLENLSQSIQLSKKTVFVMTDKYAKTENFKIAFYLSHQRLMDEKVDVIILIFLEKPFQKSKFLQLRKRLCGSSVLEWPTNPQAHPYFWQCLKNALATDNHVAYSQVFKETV
Outline: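 Cryopreserved healthy-donor PBMCs (100,000/well, RPMI-1640 + 10% FBS) pre-incubated 1 h at 37 °C with antagonist (10-point dose response, quadruplicate), then stimulated 6 h with GS-986 at 400 nM final. Supernatant IL-6 and IFNα measured by electrochemiluminescence immunoassay; EC50 from sigmoidal fit.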

TLR8 = molecular target: T2, TLR8 (Homo sapiens, UniProt Q9NR97); test: TLR8 human PBMC cell-based assay (antagonist, Compound A stimulated cytokine release); conditions: human PBMCs; TLR8 agonist Compound A 800 nM, 6 hours; cytokines (TNFa and IL 12p40) in supernatant; read-out: TLR-8 EC50
T2 construct: Human peripheral blood mononuclear cells (PBMCs) consist of lymphocytes, monocytes and dendritic cells that express TLR7, TLR8 and TLR9; endogenous in cells; host or cells: cryopreserved human PBMCs from healthy donors
T2 sequence (Q9NR97 27-1041): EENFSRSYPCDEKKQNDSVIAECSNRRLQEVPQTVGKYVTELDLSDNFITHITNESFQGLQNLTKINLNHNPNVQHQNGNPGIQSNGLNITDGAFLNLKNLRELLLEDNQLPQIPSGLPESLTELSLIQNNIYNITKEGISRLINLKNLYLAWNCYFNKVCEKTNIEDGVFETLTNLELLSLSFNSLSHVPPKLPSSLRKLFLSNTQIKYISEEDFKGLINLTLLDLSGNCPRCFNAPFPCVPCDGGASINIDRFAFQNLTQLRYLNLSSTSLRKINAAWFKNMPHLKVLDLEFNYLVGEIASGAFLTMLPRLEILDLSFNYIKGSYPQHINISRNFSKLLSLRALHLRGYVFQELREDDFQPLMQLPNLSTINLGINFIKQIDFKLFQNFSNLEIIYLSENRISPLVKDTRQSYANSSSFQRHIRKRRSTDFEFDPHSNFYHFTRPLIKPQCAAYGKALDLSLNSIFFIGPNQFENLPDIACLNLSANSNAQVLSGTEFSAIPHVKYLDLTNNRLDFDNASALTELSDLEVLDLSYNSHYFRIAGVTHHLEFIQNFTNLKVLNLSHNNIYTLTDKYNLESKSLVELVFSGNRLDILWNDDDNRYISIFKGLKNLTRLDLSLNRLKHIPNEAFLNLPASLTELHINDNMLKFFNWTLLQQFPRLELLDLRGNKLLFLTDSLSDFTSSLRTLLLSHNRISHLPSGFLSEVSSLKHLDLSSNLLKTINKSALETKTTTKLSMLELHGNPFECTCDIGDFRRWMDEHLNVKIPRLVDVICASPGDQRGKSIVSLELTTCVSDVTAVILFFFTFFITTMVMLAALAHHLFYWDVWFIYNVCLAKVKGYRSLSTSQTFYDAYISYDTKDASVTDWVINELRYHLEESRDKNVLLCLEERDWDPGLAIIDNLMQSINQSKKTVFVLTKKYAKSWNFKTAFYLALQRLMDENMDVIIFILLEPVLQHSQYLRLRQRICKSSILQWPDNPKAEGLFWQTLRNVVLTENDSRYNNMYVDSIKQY
Outline: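 Cryopreserved donor PBMCs (100,000/well, RPMI + 10% FBS) were preincubated 1 h with antagonist (10-point dose response, quadruplicate), then stimulated with Compound A (800 nM final) for 6 h at 37 °C. TNFa and IL-12p40 in supernatants were measured by electrochemiluminescence; sigmoidal fits gave EC50.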

| EC50 (TLR7) | EC50 (TLR8) | SMILES |
| --- | --- | --- |
| 8.2 nM | 3 nM | Cc1cc(-c2[nH]c3cc(CN4CCC(C)(O)CC4)sc3c2C(C)C)cn2ncnc12 [Example 270, 1-((6-Isopropyl-5-(8-methyl-[1,2,4]triazolo[1,5-a]pyridin-6-yl)-4H-thieno[3,2-b]pyrrol-2-yl)methyl)-4-methylpiperidin-4-ol] |
| 36.6 nM | 16 nM | Cc1cc(-c2[nH]c3cc(-c4nnc(C5CCNCC5)o4)sc3c2C(C)C)cc(C)n1 [Example 52, 2-[5-(2,6-dimethyl-4-pyridyl)-6-isopropyl-4H-thieno[3,2-b]pyrrol-2-yl]-5-(4-piperidyl)-1,3,4-oxadiazole] |
| 1.5 nM | 7.2 nM | Cc1cc(-c2[nH]c3cc(C(=O)N4CCCC(CN)C4)sc3c2C(C)C)cn2ncnc12 (stereo not drawn) [Example 111] |
| 3.8 nM | 10 nM | Cc1cc(-c2[nH]c3cc(C4CCN(C(=O)[C@@H]5CCCN5C)CC4)sc3c2C(C)C)cn2ncnc12 [Example 200] |
| 10.3 nM | 91 nM | Cc1cc(-c2[nH]c3cc(C(=O)N(C)[C@H]4CCNCC4(F)F)sc3c2C(C)C)cn2ncnc12 [Example 81] |
| 22.3 nM | 23.6 nM | Cc1cc(-c2[nH]c3cc(-c4nnc(C5CCC(N)CC5)o4)sc3c2C(C)C)cc(C)n1 (stereo not drawn) [Example 71] |
| 1.4 nM | 314 nM | Cc1c(C(=O)N(C)C2CCNCC2)sc2c(C(C)C)c(-c3cc(C)c4ncnn4c3)[nH]c12 [Example 241] |
| 6.3 nM | 131 nM | CC(C)c1c(-c2ccc3nccn3c2)[nH]c2cc(C(=O)N3CCNCC3)sc12 [Example 67] |
| 1.6 nM | 1.9 nM | Cc1c(-c2[nH]c3cc(-c4cn(C5CCNCC5)nn4)sc3c2C(C)C)cn2ncnc2c1C [Example 230] |
| 2.2 nM | 78.8 nM | Cc1cc(-c2[nH]c3cc(C(=O)N4C[C@@H](N)CC[C@@H]4C)sc3c2C(C)C)cn2ncnc12 [Example 101] |
| 1.7 nM | 12.7 nM | Cc1cc(-c2[nH]c3cc(C(=O)N(C)[C@@H]4CNC[C@@H]4F)sc3c2C(C)C)cn2ncnc12 [Example 57] |
| 16.2 nM | 14 nM | Cc1cc(-c2[nH]c3cc(C(=O)N4CCNC[C@H]4c4ccccc4)sc3c2C(C)C)cn2ncnc12 [Example 116] |
| 72 nM | 123 nM | Cc1cc(-c2[nH]c3cc(C(=O)N4CC[C@@H](F)[C@@H](N)C4)sc3c2C(C)C)cc(C)n1 [Example 27] |
| 0.43 nM | 17.9 nM | Cc1cc(-c2[nH]c3cc(C4CCC5(CC4)CCN(CC(N)=O)CC5)sc3c2C(C)C)cn2ncnc12 [Example 290] |
| 12.7 nM | 7.5 nM | Cc1cc(-c2[nH]c3cc(C(=O)N4CC(N)C4)sc3c2C(C)C)cn2ncnc12 [Example 114] |
